This note sets out measurements from paper PMC9379910, “Chimeric Ligands of Pili and Lectin A Inhibit Tolerance, Persistence, and Virulence Factors of Pseudomonas aeruginosa over a Wide Range of Phenotypes” (ACS Infectious Diseases, 2022).

What is called IC50 is the concentration that gives 50% inhibition. A low value points to greater potency. As usually defined, the Kd is the equilibrium constant for the complex coming apart.

Assay [1] addresses T1, LecA (Pseudomonas aeruginosa, UniProt Q05097). The assay is described as follows: competitive fluorescence polarization (displacement of βGal-aryl-Dansyl from […] LecA). It counts as binding.
Assay [2] has as its target T1, LecA. The assay is described as follows: direct fluorescence polarization titration with LecA ([…]). It counts as binding. For orientation: Fluorescence polarisation rises when a labelled molecule tumbles more slowly, as on binding a larger partner.
Assay [3] concerns the target T1, LecA. Description: competitive fluorescence polarization (displacement of βGal-aryl-Dansyl from […] LecA); also motility-enabled binding assay.

T1 sequence (Q05097 2-122): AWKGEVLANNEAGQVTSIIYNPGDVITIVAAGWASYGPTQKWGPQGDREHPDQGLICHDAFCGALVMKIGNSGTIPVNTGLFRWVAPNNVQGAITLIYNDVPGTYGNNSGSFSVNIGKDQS

On to `CCCCCCCC(C)CC(C)CCO[C@@H]1O[C@H](CO)[C@@H](O[C@@H]2O[C@H](CO)[C@@H](O)[C@H](O)[C@H]2O)[C@H](O)[C@H]1O` (stereo partly drawn) [1b, 3,5-diMeDβC], for which, in assay [1], the 50% inhibitory concentration (IC50) stood at 13 µM.

In assay [2], `CN(C)c1cccc2c(S(=O)(=O)Nc3ccc(O[C@@H]4O[C@H](CO)[C@H](O)[C@H](O)[C@H]4O)cc3)cccc12` [βGal-aryl-Dansyl] came in with a Kd of roughly 10.7 µM.

The molecule `CCCCCCCC(C)CC(C)CCO[C@@H]1O[C@H](CO)[C@@H](O[C@H]2O[C@H](CO)[C@@H](O)[C@H](O)[C@H]2O)[C@H](O)[C@H]1O` (stereo partly drawn) [1a, 3,5-diMeDβM] yielded a half-inhibitory concentration (IC50) in assay [3] of 15 µM.
